# From patent US11147855B2, “Methods for treating glaucoma or ocular hypertension comprising delivery of prostaglandins to the vitreous humour” (Cella Therapeutics, LLC, priority 2018, dated 2021)
# Tested on: African Green monkeys
# Assay: IOP after intravitreal injection in African Green monkeys, compared with PBS in the fellow eye
# Format: in vivo, African Green monkey
# Conditions: for animals responding with a reduction in IOP of ≥30%: 4 animals
# Procedure: Eight African Green monkeys were screened to identify 4 animals with high-normal IOP. Animals were anesthetized with ketamine 10 mg/kg and Xylazine 0.5 mg/kg. Bimatoprost acid 100 ng in 50 μl was injected intravitreally in one eye through a 30-gauge syringe using a shelved technique, and 50 μl of phosphate buffered saline (PBS) was injected into the fellow eye as a concurrent control on days 0, 1, 2 at 8:30 pm. The bimatoprost acid dose was escalated to 200 ng in 100 μl, with the same volume of PBS given to the fellow eye, on days 3 (8:30 pm) and 4 (5:30 pm). IOP was measured with a Tonovet tonometer at 8:30 am, 11:30 am and 8:30 pm on day 1; 8:30 am, 11:30 am and 5:30 pm on day 4; and at 8:30 am on days 2, 3 and 5. The person measuring the IOP was masked to treatment assignment. Slit lamp exams were performed on day 0, 1 and 5. OCTs were performed at baseline and day 5.
structure (smiles),measurement,setting,value
O=C(O)CCC/C=C\C[C@@H]1[C@@H](/C=C/[C@@H](O)CCc2ccccc2)[C@H](O)C[C@@H]1O [bimatoprost acid],animals responding with a reduction in IOP of ≥30%,100 ng dose intravitreal,One of four
same,reduction in IOP compared with the fellow eye,"100 ng in 50 μl intravitreal, days 0, 1, 2, animal B392, at 1 timepoint",≥ 30%
same,animals responding with a reduction in IOP of ≥30%,200 ng dose intravitreal,Three of four
same,IOP reduced in the treated eye compared with the fellow eye receiving PBS,"200 ng dose, animal B392, day 5",52%
same,reduction in IOP compared with the fellow eye,"200 ng in 100 μl intravitreal, days 3 and 4, responding animals, at 1 or more timepoints",≥ 30%
same,IOP response,"animal B300, 100 ng and 200 ng doses",did not respond to either dose
